Tests used:
[1] = Stability of Racecadotril in Beta-Hydroxypropyl-Cyclodextrin (Beta-HPCD); assay type: physicochemical
Experimental: (§1) Formulations of racecadotril in beta-hydroxypropyl-cyclodextrin were evaluated (Table 4). • 1. Pipet 1 mL of Racecadotril solution into a 100 mL volumetric flask (V.F.) • 2. Dilute to volume with the same buffer used in the solution preparation. • 3. […] Parameters may be modified to optimize chromatography. • The assay of Racecadotril is determined by using the external standard injected. The degradation products levels are determined by % peak area relative to the Racecadotril peak. [table] [table] Mobil Phase A: Phosphate buffer, pH 2.5 (Buffer prep: dissolve 1 g of potassium dihydrogen phosphate in water, adjust to pH 2.5 with phosphoric acid, dilute to 1000 mL with water) Mobil Phase B: 100% Acetonitrile

[2] = Stability of Racecadotril in Water; assay type: physicochemical
Experimental: as §1, with “For comparative purposes, the stability” for “Formulations”, “was tested at room temperature and at 40° C.” for “in beta-hydroxypropyl-cyclodextrin were evaluated (Table 4).”

Racecadotril in Beta-HPCD at 40° C. (%) with pH Adjustment to 4.5, Acetate Buffer ([1]; 1 Week): 96.16%
Racecadotril in Beta-HPCD at 40° C. (%) with pH Adjustment to 4.5, Citrate Buffer ([1]; 1 Week): 96.20%
Racecadotril in Beta-HPCD at 40° C. (%) without pH Adjustment, Acetate Buffer ([1]; 1 Week): 94.1%
Racecadotril in Beta-HPCD at 40° C. (%) without pH Adjustment, Citrate Buffer ([1]; 1 Week): 93.6%
Racecadotril in Beta-HPCD at 40° C. (%) with pH Adjustment to 4.5, Acetate Buffer ([1]; 2 Weeks): 92.7%
Racecadotril in Beta-HPCD at 40° C. (%) with pH Adjustment to 4.5, Citrate Buffer ([1]; 2 Weeks): 92.91%
Racecadotril in Beta-HPCD at 40° C. (%) with pH Adjustment to 4.5, Acetate Buffer ([1]; 3 Weeks): 88.95%
Racecadotril in Beta-HPCD at 40° C. (%) with pH Adjustment to 4.5, Citrate Buffer ([1]; 3 Weeks): 89.59%
Racecadotril in Beta-HPCD at 40° C. (%) with pH Adjustment to 4.5, Acetate Buffer ([1]; 4 Weeks): 85.84%
Racecadotril in Beta-HPCD at 40° C. (%) with pH Adjustment to 4.5, Citrate Buffer ([1]; 4 Weeks): 86.80%
Racecadotril in Beta-HPCD at 40° C. (%) with pH Adjustment to 4.5, Acetate Buffer ([1]; 12 Hours): 98.07%
Racecadotril in Beta-HPCD at 40° C. (%) with pH Adjustment to 4.5, Citrate Buffer ([1]; 12 Hours): 98.12%
Racecadotril in Beta-HPCD at 40° C. (%) without pH Adjustment, Acetate Buffer ([1]; 12 Hours): 96.9%
Racecadotril in Beta-HPCD at 40° C. (%) without pH Adjustment, Citrate Buffer ([1]; 12 Hours): 96.9%
Racecadotril in Beta-HPCD at 40° C. (%) with pH Adjustment to 4.5, Acetate Buffer ([1]; Initial): 99.58%
Racecadotril in Beta-HPCD at 40° C. (%) with pH Adjustment to 4.5, Citrate Buffer ([1]; Initial): 99.58%
Racecadotril in Beta-HPCD at 40° C. (%) without pH Adjustment, Acetate Buffer ([1]; Initial): 99.5%
Racecadotril in Beta-HPCD at 40° C. (%) without pH Adjustment, Citrate Buffer ([1]; Initial): 99.3%
Racecadotril (%) in Water at 40° C. ([2]; 1 Week): 0%
Racecadotril (%) in Water at Room Temperature ([2]; 1 Week): 1.0%
Racecadotril (%) in Water at 40° C. ([2]; 2 Weeks): 0.2%
Racecadotril (%) in Water at Room Temperature ([2]; 2 Weeks): 0.0%
Racecadotril (%) in Water at Room Temperature ([2]; 12 Hours): 44.9%
Racecadotril (%) in Water at 40° C. ([2]; Initial): 78.88%
Racecadotril (%) in Water at Room Temperature ([2]; Initial): 74.88%
racecadotril present ([2]; in water, at 1 week): less than 1%
stability of racecadotril in water ([2]; room temperature and 40° C., after 12 hours): unstable
SMILES: CC(=O)SCC(Cc1ccccc1)C(=O)NCC(=O)OCc1ccccc1 (racemic) [Racecadotril]
stability in Beta-HPCD compared with buffers alone [1]: stability is similar to that in buffers alone

Source: patent US20140271831A1, “RACECADOTRIL LIQUID COMPOSITIONS” (McNeil-PPC, Inc., priority 2013, published 2014)
